The experiment addresses T1, human CCR1 (Homo sapiens, UniProt P32246).
T1 sequence (P32246 1-355): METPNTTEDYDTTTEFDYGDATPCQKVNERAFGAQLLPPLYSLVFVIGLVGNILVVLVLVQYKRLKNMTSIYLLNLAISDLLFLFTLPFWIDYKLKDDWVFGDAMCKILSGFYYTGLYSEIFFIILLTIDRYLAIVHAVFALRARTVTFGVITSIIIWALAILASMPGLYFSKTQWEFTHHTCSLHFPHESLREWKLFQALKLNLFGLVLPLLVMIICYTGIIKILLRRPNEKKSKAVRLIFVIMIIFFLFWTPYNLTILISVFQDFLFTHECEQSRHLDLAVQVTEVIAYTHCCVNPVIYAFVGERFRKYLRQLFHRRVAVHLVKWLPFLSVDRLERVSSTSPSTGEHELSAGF
The experiment is described as follows: CCR1 binding protocol (SPA, [125I]-MIP-1α displacement). The settings on record: cell membrane expressing human CCR1, 0.1 nM [125I]-MIP-1α, 4 hours at ambient temperature; read-out: Relative potency (IC50). Put shortly: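 Human CCR1 membranes (0.5 μg/well) on SPA beads were incubated with compound and 0.1 nM [125I]-MIP-1α (final) for 4 h at ambient temperature. Buffer was Tris pH 7.4 with NaCl, KCl, MnCl and 0.1% BSA. IC50 came from ½-log compound dilutions (10 mM top DMSO stock) by displacement of bound radioligand.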
Turning to `Cc1nnc([C@H]2CCCN2C(=O)N[C@H]2CCOc3c(F)cccc32)n1Cc1ccc(Cl)cc1` [Compound 149], the IC50 – broadly, the point on the concentration scale where inhibition reaches its midpoint – is less than 50 nM.
Take `Cc1cc(C)c(NC(=O)N2CCC[C@@H]2c2nnc(C)n2Cc2ccc(Cl)cc2)c(C)c1` [Compound 150]: the IC50 is less than 50 nM.
As for `Cc1cccc(Cl)c1NC(=O)N1CCC[C@@H]1c1nnc(C)n1Cc1ccc(Cl)cc1` [Compound 151], the IC50 is less than 50 nM.
`Cc1nnc([C@H]2CCCN2C(=O)N[C@H]2CCOc3cc(F)ccc32)n1Cc1ccc(Cl)cc1` [Compound 152]: the IC50 is less than 50 nM.
`Cc1nnc([C@H]2CCCN2C(=O)N[C@H]2CCOc3c(F)cc(F)cc32)n1Cc1ccc(Cl)cc1` [Compound 153]: the IC50 was less than 50 nM.
As to `Cc1nnc([C@H]2CCCN2C(=O)Nc2ccc(C(F)(F)F)cc2Cl)n1Cc1ccc(Cl)cc1` [Compound 154], the IC50 fell in the range of 50 to 500 nM.
Consider `Cc1nnc([C@H]2CCCN2C(=O)N[C@H]2CCc3ccccc32)n1Cc1ccc(Cl)cc1` [Compound 155], for which the IC50 was in the range of 50 to 500 nM.
Turning to `Cc1nnc([C@H]2CCCN2C(=O)N[C@H]2CCCOc3ccc(Cl)cc32)n1Cc1ccc(Cl)cc1` [Compound 156], the IC50 is 50 to 500 nM.
In the case of `Cc1nnc([C@H]2CCCN2C(=O)N[C@H]2CCOc3ccc(F)cc32)n1Cc1ccc(Cl)cc1` [Compound 157], the IC50 lay in the range of 50 to 500 nM.
Regarding `Cc1cccc(C)c1NC(=O)N1CCC[C@@H]1c1nnc(C)n1Cc1ccc(Cl)cc1` [Compound 158], the IC50 is 50 to 500 nM.
With `O=C(N[C@H]1CCCOc2ccc(Cl)cc21)N1CCC[C@@H]1c1nncn1Cc1ccc(Cl)cc1` [Compound 159], the 50% inhibitory concentration (IC50) is 50 to 500 nM.
In the case of `Cc1nnc([C@H]2CCCN2C(=O)Nc2ccc(Cl)cc2)n1Cc1ccc(Cl)cc1` [Compound 160], the IC50 was in the range of 50 to 500 nM.
Turning to `Cc1nnc([C@H]2CCCN2C(=O)N[C@H]2CCOc3c(F)ccc(F)c32)n1Cc1ccc(Cl)cc1` [Compound 161], the IC50 lay within 50 to 500 nM.
As for `Cc1nnc([C@H]2CCCN2C(=O)Nc2ccc(Br)cc2)n1Cc1ccc(Cl)cc1` [Compound 162], the figure is 50 to 500 nM; as for `Cc1nnc([C@H]2CCCN2C(=O)Nc2cccc(Cl)c2)n1Cc1ccc(Cl)cc1` [Compound 163], 50 to 500 nM; as for `Cc1nnc([C@H]2CCCN2C(=O)N[C@H]2CCOc3cccc(F)c32)n1Cc1ccc(Cl)cc1` [Compound 164], 50 to 500 nM.
For the compound `Cc1nnc([C@H]2CCCN2C(=O)N[C@H]2CCOc3c(F)ccc(Cl)c32)n1Cc1ccc(Cl)cc1` [Compound 165], the IC50 was in the range of 50 to 500 nM.
Regarding `CCc1nnc([C@H]2CCCN2C(=O)Nc2c(C)cc(C(F)(F)F)cc2C)n1Cc1ccc(Cl)cc1` [Compound 167], the IC50 was less than 50 nM.
Consider `Cc1nnc([C@H]2CCCN2C(=O)N[C@@H](C)c2ccc(Cl)c(Cl)c2)n1Cc1ccc(Cl)cc1` [Compound 168], for which the IC50 is less than 50 nM.
In the case of `Cc1nnc([C@H]2CCCN2C(=O)N[C@H]2CCc3cc(C(F)(F)F)ccc32)n1Cc1ccc(Cl)cc1` [Compound 169], the IC50 was less than 50 nM.
Turning to `Cc1nnc([C@H]2CCCN2C(=O)N[C@@H](C)c2ccc(Cl)cc2)n1Cc1ccc(Cl)cc1` [Compound 170], the IC50 is less than 50 nM.
As to `Cc1nnc([C@H]2CCCN2C(=O)N[C@H]2CCc3ccc(C(F)(F)F)cc32)n1Cc1ccc(Cl)cc1` [Compound 171], the IC50 is 50 to 500 nM.
For the compound `Cc1nnc([C@H]2CCCN2C(=O)N[C@H]2CCCc3ccccc32)n1Cc1ccc(Cl)cc1` [Compound 172], the IC50 fell in the range of 50 to 500 nM.
As to `Cc1nnc([C@H]2CCCN2C(=O)Cc2ccc(C(F)(F)F)cc2)n1Cc1ccc(Cl)cc1` [Compound 173], the half-maximal inhibitory concentration (IC50) fell in the range of 50 to 500 nM.
On to `Cc1nnc([C@H]2CCCN2C(=O)Cc2ccc(Cl)cc2)n1Cc1ccc(Cl)cc1` [Compound 174], for which the IC50 was 50 to 500 nM.
On to `Cc1nnc([C@H]2CCCN2C(=O)Oc2ccc(Cl)cc2)n1Cc1ccc(Cl)cc1` [Compound 175], for which the IC50 was in the range of 500 to 5000 nM.
With `Cc1nnc([C@H]2CCCN2C(=O)Oc2ccc(F)cc2)n1Cc1ccc(Cl)cc1` [Compound 176], the IC50 is 500 to 5000 nM.
With `Cc1nnc([C@H]2CCCN2C(=O)NC2CCCOc3cc(C(F)(F)F)ccc32)n1Cc1ccc(Cl)cc1` (stereo partly drawn) [Compound 177], the IC50 was less than 50 nM.
Consider `Cc1nc(Cl)c(NC(=O)N2CCC[C@@H]2c2nnc(C)n2Cc2ccc(Cl)cc2)c(Cl)n1` [Compound 178], for which the IC50 was less than 50 nM.
Take `Cc1nnc([C@H]2CCCN2C(=O)NC(C)(C)c2ccccc2)n1Cc1ccc(Cl)cc1` [Compound 179]: the half-maximal inhibitory concentration (IC50) was less than 50 nM.
Turning to `Cc1nnc([C@H]2CCCN2C(=O)N[C@H](C)c2ccc(Cl)cc2)n1Cc1ccc(Cl)cc1` [Compound 180], the IC50 was less than 50 nM.
Turning to `CC[C@H](NC(=O)N1CCC[C@@H]1c1nnc(C)n1Cc1ccc(Cl)cc1)c1ccccc1` [Compound 181], the IC50 is less than 50 nM.
Take `Cc1nnc([C@H]2CCCN2C(=O)Nc2c(Cl)ncnc2N(C)C)n1Cc1ccc(Cl)cc1` [Compound 182]: the half-maximal inhibitory concentration (IC50) is less than 50 nM.
On to `CCC(CC)NC(=O)N1CCC[C@@H]1c1nnc(C)n1Cc1ccc(Cl)cc1` [Compound 183], for which the IC50 fell in the range of 50 to 500 nM.
As to `Cc1nnc([C@H]2CCCN2C(=O)N[C@@H](C)C2CCCCC2)n1Cc1ccc(Cl)cc1` [Compound 184], the IC50 lay within 50 to 500 nM.
As for `Cc1nnc([C@H]2CCCN2C(=O)NC2CCCCC2)n1Cc1ccc(Cl)cc1` [Compound 185], the figure is 50 to 500 nM; as for `Cc1nnc([C@H]2CCCN2C(=O)NC2CCCCCC2)n1Cc1ccc(Cl)cc1` [Compound 186], 50 to 500 nM; as for `Cc1noc(-c2ccccc2)c1NC(=O)N1CCC[C@@H]1c1nnc(Cl)n1Cc1ccc(Cl)cc1` [Compound 187], less than 50 nM.
As for `Cc1nc(Cl)nc(Cl)c1NC(=O)N1CCC[C@@H]1c1nnc(C)n1Cc1ccc(Cl)cc1` [Compound 188], the figure is less than 50 nM; as for `COC(=O)c1cccc(NC(=O)N2CCC[C@@H]2c2nnc(C)n2Cc2ccc(Cl)cc2)c1C` [Compound 189], less than 50 nM; as for `Cc1cc(C(F)(F)F)ccc1NC(=O)N1CCC[C@@H]1c1nnc(C)n1Cc1ccc(Cl)cc1` [Compound 190], less than 50 nM.
As for `CC[C@H](NC(=O)N1CCC[C@@H]1c1nnc(C)n1Cc1ccc(Cl)cc1)c1ccc(Cl)c(Cl)c1` [Compound 191], the IC50 was less than 50 nM.
With `Cc1nnc([C@H]2CCCN2C(=O)Nc2c(Cl)nc(N)nc2Cl)n1Cc1ccc(Cl)cc1` [Compound 192], the IC50 is less than 50 nM.
As to `COC(=O)c1ccc(C)c(NC(=O)N2CCC[C@@H]2c2nnc(C)n2Cc2ccc(Cl)cc2)c1` [Compound 193], the concentration for half-maximal inhibition (IC50) is less than 50 nM.
For `O=C(N[C@H]1CCOc2cc(C(F)(F)F)ccc21)N1CCC[C@@H]1c1nnc(Cl)n1Cc1ccc(Cl)cc1` [Compound 194], the IC50 is less than 50 nM.
Consider `Cc1nnc([C@H]2CCCN2/C(=N\C#N)N[C@@H](C)c2cc3ccccc3o2)n1Cc1ccc(Cl)cc1` [Compound 195], for which the IC50 was less than 50 nM.
`CC[C@H](N/C(=N/C#N)N1CCC[C@@H]1c1nnc(C)n1Cc1ccc(Cl)cc1)c1cc2ccccc2o1` [Compound 196]: the IC50 is less than 50 nM.
Consider `Cc1nnc([C@H]2CCCN2C(=O)Nc2ccc(Br)cc2C(F)(F)F)n1Cc1ccc(Cl)cc1` [Compound 197], for which the IC50 was less than 50 nM.
For the compound `Cc1cc(Cl)cc(C)c1N/C(=N/C#N)N1CCC[C@@H]1c1nnc(C)n1Cc1ccc(Cl)cc1` [Compound 198], the half-maximal inhibitory concentration (IC50) was less than 50 nM.
For `Cc1nnc([C@H]2CCCN2C(=O)N[C@H]2CCOc3c2cccc3C(F)(F)F)n1Cc1ccc(Cl)cc1` [Compound 199], the IC50 was less than 50 nM.
As to `Cc1noc(C)c1NC(=O)N1CCC[C@@H]1c1nnc(C)n1Cc1ccc(Cl)cc1` [Compound 200], the IC50 is less than 50 nM.
As for `Cc1nnc([C@H]2CCCN2C(=O)Nc2c(Cl)ncnc2Cl)n1Cc1ccc(Cl)cc1` [Compound 201], the figure is less than 50 nM.
Turning to `Cc1nnc([C@H]2CCCN2C(=O)NCc2ccc(Cl)cc2Cl)n1Cc1ccc(Cl)cc1` [Compound 202], the IC50 is less than 50 nM.
For the compound `CCc1nnc([C@H]2CCCN2C(=O)Nc2c(C)noc2-c2ccccc2)n1Cc1ccc(Cl)cc1` [Compound 203], the IC50 was less than 50 nM.
As for `Cc1nnc([C@H]2CCCN2C(=O)NC2(c3ccccc3)CC2)n1Cc1ccc(Cl)cc1` [Compound 204], the figure is less than 50 nM.
As for `O=C(NCc1ccc(C(F)(F)F)cc1)N1CCC[C@@H]1c1nnc(Cl)n1Cc1ccc(Cl)cc1` [Compound 205], the figure is less than 50 nM; as for `Cc1cc(C)c(NC(=O)N2CCC[C@@H]2c2nnc(C)n2Cc2ccc(Cl)cc2)c(C(N)=O)c1` [Compound 206], less than 50 nM.
As for `Cc1nnc([C@H]2CCCN2C(=O)N[C@H]2CCOc3cc(C#N)ccc32)n1Cc1ccc(Cl)cc1` [Compound 207], the figure is less than 50 nM; as for `Cc1ccc(C(=O)N(C)C)cc1NC(=O)N1CCC[C@@H]1c1nnc(C)n1Cc1ccc(Cl)cc1` [Compound 208], less than 50 nM; as for `CCc1nnc([C@H]2CCCN2C(=O)N[C@H]2CCOc3cc(C(F)(F)F)ccc32)n1Cc1ccc(Cl)cc1` [Compound 209], less than 50 nM.
Take `CNC(=O)c1cc(C)cc(C)c1NC(=O)N1CCC[C@@H]1c1nnc(C)n1Cc1ccc(Cl)cc1` [Compound 210]: the IC50 is less than 50 nM.
As to `COC(=O)c1cc(C)cc(C)c1NC(=O)N1CCC[C@@H]1c1nnc(C)n1Cc1ccc(Cl)cc1` [Compound 211], the IC50 was less than 50 nM.
For the compound `CNC(=O)c1cccc(C)c1NC(=O)N1CCC[C@@H]1c1nnc(C)n1Cc1ccc(Cl)cc1` [Compound 212], the 50% inhibitory concentration (IC50) is less than 50 nM.

The record behind these values is patent publication US8288371B2, “Ortho pyrrolidine, benzyl-substituted heterocycle CCR1 antagonists for autoimmune diseases and inflammation” (Pharmacopeia, LLC, priority 2007, dated 2012).
